Measured values reported in US8470745B2, “Methods and compositions for obtaining and using biologically active multi-protein complexes” (priority 2006, dated 2013).

Experiments:
[1] = tested on: NMDAR complexes; assay: Activity test on immobilized NMDAR complexes (immunoblotting and immunofluorescence detection); type: biochemical, rat; conditions: Five mM SOV, 30° C. for 1 hour, vs control
Experimental: Experiments were performed on cortical tissue obtained from 3 week-old Sprague-Dawley rats. All procedures were conducted in strict adherence with the NIH Guide for the Care and Use of Laboratory Animals. Cortical tissue from 21 day-old rats was solubilized using a syringe in solubilization/immunoprecipitation buffer containing 0.1% Triton X-100, 0.2% β-mercaptoethanol, 50 mM Tris-HCl pH 7.5, 5 mM EDTA, 5 mM EGTA, 10 mg/ml of Sigma protease inhibitor cocktail, 1 mM phenylmethylsulfonyl fluoride. The tissue homogenate was centrifuged (15,000 g for 10 min at 4° C.) to remove insoluble material. The supernatantusprenat was kept at 4° C. and used later for immunoprecipitation. Protein A/G pre-coated 96-well plates (Pierce Biotechnology, Rockford, Ill.) were used for immunoprecipitation of active NMDA receptor complexes. The plates were washed with the solubilization/immunoprecipitation buffer and anti-NR1 antibody (20 μg) was added to each well in 100 μL of extraction buffer. Following a 2 hour incubation at room temperature, the wells were rinsed 3 times with solubilization/immunoprecipitation buffer and 100 μL of supernatant were added to each well. Following 4 hours incubation at 4° C., the wells were washed three times with a reaction buffer containing: 0.2% β-mercaptoethanol, 25 mM Tris-HCl pH 7.5, 30 mM MgCl2, 20 mM MnCl2, 0.5 mM DTT.
Fifty μL of reaction buffer, 500 μM ATP, and the agents to be tested were added to each well. The control wells contained 50 μL of reaction buffer alone or in the presence 500 μM ATP. All samples were incubated at 30° C. for 1 hour. […]
For fluorescence detection experiments, black 96-well plates were used to avoid fluorescence spill over. […] Multi-well plates were read on a Cytofluor 2350 fluorescence plate reader using the appropriate filters. […]

[2] = tested on: GABAA receptor complexes; assay: Tyrosine phosphorylation in isolated GABAA receptor complexes (Western blotting); type: biochemical; conditions: Five mM SOV, 30° C. for 1 hour, hippocampus tissue, vs control
Experimental: To test the effect of PTP inhibitor SOV on isolated GABA receptor complexes, hippocampus tissue was removed and homogenized with the solubilization/immunoprecipitation buffer described above. GABAA receptor complexes were immunoprecipitated using anti-β2/β3 antibody (Upstate Biotechnology, Lake Placid, N.Y., USA) as described in Example 1. The immobilized complexes were rinsed and solubilization/immunoprecipitation buffer was replaced with reaction buffer. This reaction buffer was added to all the wells. Control wells contained only the reaction buffer or reaction buffer and ATP alone. Five mM of SOV was added to the rest of the wells and incubated at 30° C. for 1 hour. The reaction was stopped with a blocking buffer and samples rinsed and subjected to Western blotting with anti-pTyr and anti-β2/β3 antibodies.

[3] = tested on: α-7nACh receptor complexes; assay: Tyrosine phosphorylation in isolated α-7nACh receptor complexes (Western blotting); type: biochemical; conditions: Five mM SOV, 30° C. for 1 hour, hippocampus tissue, vs control
Experimental: To test the effect of PTP inhibitor SOV on isolated a-7nACh receptor complexes, hippocampus tissue was dissected from the brain and homogenized with the solubilization/immunoprecipitation buffer described above, with some modifications. The solubilization buffer contained 0.05% TritonX-100 instead of 0.1% as used in Example 1. Immobilized complexes were rinsed and solubilization/immunoprecipitation buffer was replaced with reaction buffer. This reaction buffer was added to all the wells. Control wells contained only the reaction buffer or reaction buffer and ATP alone. Five mM SOV was added to rest of the wells and incubated at 30° C. for 1 hour. The reaction was stopped with a blocking buffer and samples rinsed and subjected to Western blotting with anti-pTyr, anti-α7 antibodies.

[4] = tested on: HCN4 ion channel complexes; assay: Tyrosine phosphorylation in isolated HCN4 ion channel complexes; type: biochemical; conditions: Five mM SOV, 30° C. for 1 hour; rat ventricles; vs control
Experimental: To test the effect of PTP inhibitor SOV, rat ventricles were dissected and homogenized in solubilization/immunoprecipitation buffer and subjected to co-immunoprecipitation by incubation with anti-HCN4 polyclonal antibody (Alpha Diagnostic International, San Antonio, Tex.), as described in Example 1. Immobilized complexes were rinsed and solubilization/immunoprecipitation buffer was replaced with reaction buffer. This reaction buffer was added to all the wells. Control wells contained only the reaction buffer or reaction buffer and ATP alone. Five mM SOV was added to rest of the wells and incubated at 30° C. for 1 hour. The reaction was stopped with blocking buffer and samples were rinsed and subjected to Western blotting or fluorescence analysis using anti-pTyr and anti-HCN4 antibodies.

[5] = immunoblotting and immunofluorescence

## [Na+].[Na+].[Na+].[O]=[V]([O-])([O-])[O-] [SOV, sodium orthovanadate]
[1]; [5]
  amount of NR2A/B in the receptor (ratio NR2A/B to NR1): decreased
  tyrosine phosphorylation of NR2A/B subunits (ratio of pTyr to NR2A/B): increased
[1]
  amount of PSD-95 in the receptor (ratio PSD-95 to NR1): decreased
[2]
  tyrosine phosphorylation of β2/β3 subunits (ratio of pTyr to β2/β3): increased
[3]
  tyrosine phosphorylation of α-7 subunits in the receptor (FIG. 5: ratio of pTyr to α-7): increased
[4]
  tyrosine phosphorylation of HCN4 subunits (ratio of pTyr to HCN4): increased
